Measurements published in patent US20250382322A1, “DIAGNOSTICS FOR DETECTING ECTO-5'-NUCLEOTIDASE (CD73)” (EBERHARD KARLS UNIVERSITÄT TÜBINGEN, priority 2022, published 2025).

Tests used:
[1] = molecular target: T1, recombinant soluble human CD73 (Homo sapiens, UniProt P21589, T376A); assay: CD73 enzyme inhibition assay with [2,8-3H]AMP, soluble human CD73; assay type: biochemical; conditions: [2,8-3H]AMP (5 μM) as substrate; Ki from IC50 by Cheng-Prusoff; read-out: Human soluble CD73 Ki ± SEM
T1 construct: mature human CD73 (residues 27-549) fused to 6×His-tag at the C-terminus; 6xHis (C); made in house; host or cells: Spodoptera frugiperda Sf9 insect cells (baculovirus, pAcGP67B vector)
T1 sequence (P21589 27-549 T376A): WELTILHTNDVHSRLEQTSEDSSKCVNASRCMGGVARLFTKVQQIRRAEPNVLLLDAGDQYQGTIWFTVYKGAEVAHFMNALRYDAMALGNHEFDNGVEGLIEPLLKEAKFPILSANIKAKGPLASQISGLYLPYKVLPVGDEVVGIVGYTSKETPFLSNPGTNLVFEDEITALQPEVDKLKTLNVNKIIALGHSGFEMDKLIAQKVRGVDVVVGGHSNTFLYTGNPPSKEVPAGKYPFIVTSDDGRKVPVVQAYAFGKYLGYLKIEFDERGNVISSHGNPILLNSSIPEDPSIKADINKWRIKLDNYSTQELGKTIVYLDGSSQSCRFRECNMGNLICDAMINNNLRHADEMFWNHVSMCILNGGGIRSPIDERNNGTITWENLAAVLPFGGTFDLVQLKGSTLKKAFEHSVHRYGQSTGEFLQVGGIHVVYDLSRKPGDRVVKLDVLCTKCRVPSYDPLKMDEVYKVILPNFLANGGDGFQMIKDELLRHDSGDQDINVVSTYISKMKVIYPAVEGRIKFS
Method: Compound 2b, its precursor 1, and 20 were investigated for their CD73-inhibitory potency using tritium-labeled AMP as a substrate.^20 After incubation with CD73, non-hydrolyzed substrate and inorganic phosphate were precipitated using a solution of lanthanum chloride, and the precipitate was separated from the solution containing the reaction product [2,8-^3H]adenosine by filtration through GF/B glass fiber filters (WhatmanTM GE Healthcare, Chicago, IL, USA) using a cell harvester (M-48, Brandel, Gaitherburg, MD, USA). The filtrates (ca. 1.8 mL each) were transferred to scintillation vials, scintillation cocktail ULTIMA Gold XR (PerkinElmer, Waltham, MA, USA) was added (5 mL), and the radioactivity esd quantified by scintillation counting. CD73 preparations were (1) recombinant soluble human CD73,^13 (2) recombinant soluble rat CD73,^21 both expressed in Spodoptera frugiperda 9 (Sf) cells, (3) membrane preparations of MDA-MB-231 cells,^16 a human triple-negative breast cancer cell line with high expression of CD73,^18 and (4) membrane preparations of the 4T1.2 cell line, a mouse CD73-expressing breast cancer cell line.^22 The potency of the compounds was determined by measurements of full concentration-inhibition curves. K values were calcuated from the obtained IC50 values employing the Cheng-Prusoff equation.^23
Human soluble CD73 was expressed in Spodoptera frugiperda (Sf9) insect cells and purified as previously described.^16 The cDNA encoding for the mature human CD73 (residues 27-549) fused to 6×His-tag at the C-terminus (Genbank accession no. NM_002526) corresponding to the natural variant T376A (P21589/VAR_022091, UniProtKB/Swiss-Prot) was ligated into the pAcGP67B vector. For transfection, 1 μl of the recombinant vector (1000 ng/μl) mixed with 2.5 μl of baculovirus genomic DNA ProEasy™ (AB vector, CA, USA) was used to transfect Sf9 cells grown in Insect-XPRESS™ medium (#BE12-7300, Lonza, Switzerland) supplemented with 10 mg/l gentamicin. […]

s.c. AsPC-1 xenografts = assay: In vivo PET imaging in AsPC-1 tumor bearing mice; parameters: species or system NSG mice
Method: Animal models. All animal experiments were performed in accordance with the legal requirements of the European Community (Directive 2010/63/EU) and the corresponding German Animal Welfare Law (TierSchG, TierSchVersV) and were approved by the local authorizing agency (State Office for Nature, Environment and Consumer Protection North Rhine-Westphalia). MDA-MB-231 or AsPC-1 cells were cultivated in RPMI supplemented with 10% fetal calf serum and 100 U/mL penicillin and 100 μg/mL streptomycin. 5×10^6 MDA-MB-231 or AsPC-1 cells were injected subcutaneously into the shoulder region of 10 to 12 week old NSG mice (NOD.Cg-Prkdcscidll2rgtm1Wjl/SzJ, Charles River Laboratories). […]
In vivo Imaging. […] Three-dimensional volumes of interest (VOIs) were defined over the respective organs in CT data sets, transferred to the coregistered PET data, and analyzed quantitatively. Regional uptake was calculated as a percentage of injected dose by dividing counts per milliliter in the VOI by total counts in the mouse multiplied by 100 (% ID/mL).
(§1) Ex vivo gamma counter measurements. […] Ex vivo biodistribution of radioactivity was analyzed by scintillation counting (Wizard2 gamma counter, Perkin-Elmer Life Science) and the radioactivity in respective organs decay-corrected and calculated as % ID per gram tissue (% ID/g).

[2] = test system: s.c. MDA-MB-231 xenografts; assay: In vivo PET imaging in MDA-MB-231 tumor bearing mice; parameters: species or system NSG mice
Method: Animal models. All animal experiments were performed in accordance with the legal requirements of the European Community (Directive 2010/63/EU) and the corresponding German Animal Welfare Law (TierSchG, TierSchVersV) and were approved by the local authorizing agency (State Office for Nature, Environment and Consumer Protection North Rhine-Westphalia). MDA-MB-231 or AsPC-1 cells were cultivated in RPMI supplemented with 10% fetal calf serum and 100 U/mL penicillin and 100 μg/mL streptomycin. 5×10^6 MDA-MB-231 or AsPC-1 cells were injected subcutaneously into the shoulder region of 10 to 12 week old NSG mice (NOD.Cg-Prkdcscidll2rgtm1Wjl/SzJ, Charles River Laboratories). Two tumors were inoculated per animal and growth was followed by digital caliper measurements (volume=½ (length*width^2)).
In vivo Imaging. Adult C57bl/6 (biodistribution study, 21±1 g) or tumor bearing NSG mice (24±3 g) were anesthetized by isoflurane/O2 and one lateral tail vein was cannulated using a 27 G needle connected to 15 cm polyethylene catheter tubing. ^18F-PSB-19427 (˜450 kBq/g body weight) were injected as a bolus (50 μL compound flushed with 50 μL saline) via the tail vein and subsequent PET scanning was performed. In the blocking studies, a subgroup of tumor-bearing mice was injected with ˜1000 fold excess of unlabeled PSB-19427 10 minutes prior to radiotracer injection. […] Three-dimensional volumes of interest (VOIs) were defined over the respective organs in CT data sets, transferred to the coregistered PET data, and analyzed quantitatively. Regional uptake was calculated as a percentage of injected dose by dividing counts per milliliter in the VOI by total counts in the mouse multiplied by 100 (% ID/mL).
as §1

[3] = Determination of log D7.4 (1-octanol/PBS); assay type: physicochemical
Method: (§2) Determination of the log D7.4-value of [^18F]2. The lipophilicity of [^18F]2 was determined following the procedure described by Prante et al.^17 Triazole [^18F]2 (˜400 kBq) in PBS buffer (10 μL, pH 7.4) was added to PBS buffer (590 μL, pH 7.4) and octan-1-ol (600 μL). The two-layer mixture was shaken for 3 min on a vortex mixer at RT and centrifuged (3000 rpm) for 5 min. The main part of the octanol layer (400 μL) was collected carefully and added to a new tube with PBS buffer (400 μL, pH 7.4). The two-layer mixture was shaken again for 10 min and centrifuged for 5 min (3000 rpm). Three samples were prepared and two aliquots (á 100 μL) of both layers were measured in a g-counter 2480 Wizard2 (Perkin-Elmer, Waltham, USA). The partition coefficient was determined by dividing cpm(octanol) by cpm(PBS) and indicated as log D7.4 (exp.).
as §2, with “D7,4-value” for “D7.4-value”, “[^18F]PSB-19427.” for “[^18F]2.”, “[^18F]PSB-19427” for “[^18F]2”, “al.^28” for “al.^17”

Ki [1] | accumulation of the tracer in the tumor xenografts as compared to muscle tissue (s.c. AsPC-1 xenografts; PET 4 h p.i., i.v., AsPC-1 xenografts) | accumulation in the tumor as compared to FDG ([2]; MDA-MB-231 tumors, 90 min and 4 h, especially in relation to muscle uptake) | accumulation of the tracer in the tumor xenografts as compared to muscle tissue ([2]; PET 4 h p.i., i.v., MDA-MB-231 xenografts) | factor of increase of measured solubility in PBS-buffer (1-octanol/PBS) versus clog P ([3]; compared to clog P 0.22) | factor of increase of measured solubility in PBS-buffer (1-octanol/PBS) versus clog P ([3]; compared to clog P 0.47) | logD ([3]; octan-1-ol/PBS buffer, 1-octanol/PBS pH 7.4) | Structure (SMILES) | change of tumor-to-muscle ratios in blocking study (s.c. AsPC-1 xenografts; AsPC-1, pretreating with PSB-12651 (7) 10 min before tracer injection) | change of tumor-to-muscle ratios in blocking study ([2]; MDA-MB-231, pretreating with unlabeled compound 2 10 min before tracer injection)
0.372 ± 0.03 nM |  |  |  |  |  |  | C#Cc1ccc(CN(CCC)c2nc(Cl)nc3c2ncn3[C@@H]2O[C@H](COP(=O)(O)CP(=O)(O)O)C(O)C2O)cc1 (stereo partly drawn) [Compound 1] |  | 
 | pronounced accumulation | higher accumulation | pronounced accumulation | 2.2 | 3.9 | -0.12 ± 0.03 | CCCN(Cc1ccc(-c2cn(CC[18F])nn2)cc1)c1nc(Cl)nc2c1ncn2C1O[C@H](COP(=O)(O)CP(=O)(O)O)C(O)C1O (stereo partly drawn) [[^18F]2, [^18F]-[((2R,3S,4R,5R)-5-{2-chloro-6-[(4-{1-[2-(fluoro)ethyl]-1H-1,2,3-triazol-4-yl}benzyl)(propyl)amino]-9H-purin-9-yl}-3,4-dihydroxytetrahydrofuran-2-yl)methoxy]methylenebisphosphonic acid] | significant decrease of tumor-to-muscle ratios | significant decrease of tumor-to-muscle ratios
